Test results as given in patent publication US20070014723A1, “Methods and compositions for 10Beryllium complex probes” (priority 2005, published 2007).
Marks after values point to notes of the source that are not given here.

Columns and labels:
Assay type in all cases: cell-based, human
[1] = tested on: BAL macrophages from CBD subjects; test: Apoptosis (nuclear fragmentation) of CBD BAL macrophages; conditions: 100 μM BeSO4, 50 μg Be-ferritin adduct containing 270 picomoles of Be, or ferritin alone, mean±SEM
Method: FIG. 1. illustrates an exemplary histogram of (a) TUNEL (assay for DNA strand break) positive nuclear staining of CBD BAL macrophages after exposure to 100 μM BeSO4 and (b) nuclear fragmentation in CBD BAL macrophages exposed to Be-ferritin containing 270 picomoles of Be. (c) The percent (mean %±SEM) of CBD BAL cells (n=8) with TUNEL positive nuclei (black) or with fragmented nuclei (open) after exposure to 100 μM BeSO4. *p<0.05 versus the corresponding unstimulated control.
Cell Cultivation: Bronchoalveolar lavage (BAL) was performed as previously described. […] BAL macrophages and T cells were separated by an adherence method known in the art.

[2] = tested on: BAL cells (Be-specific BAL T cells); test: Beryllium lymphocyte proliferation test (BeLPT), BAL cells; conditions: for Peak CBD BAL cell BeLPT stimulation index, median (minimum, maximum): CBD BAL cells, n = 4, 10^-10 M Be-ferritin, 10^-4 M BeSO4, 10^-4 M Al2(SO4)3, ferritin
[3] = tested on: BAL lymphocytes from CBD and BeS subjects; test: Apoptosis of BAL lymphocytes

Row | Compound | BAL macrophages with apoptotic fragmented nuclei [1] | BAL BeLPT SI, median (minimum, maximum) ([2]; BeS subjects, peak SI after BeSO4 stimulation) | Peak CBD BAL cell BeLPT stimulation index, median (minimum, maximum) [2] | Induction of apoptosis of BAL lymphocytes [3]
1 | O=S(=O)([O-])[O-].[Be+2] [BeSO4, Beryllium sulfate] | 50%±6% | 1.9 (1.2, 46) | 18.5 (3.7, 124)** | did not induce
2 | ferritin | < 3% | – | 1.1 (0.8, 1.3) | –
